From patent publication US20180015100A1, “COMBINATION PRODUCTS FOR THE TREATMENT OF BACTERIAL INFECTIONS AND METHODS OF PRODUCING OR DOSING OF SAME” (priority 2016, published 2018)
Read-outs that look alike come from different tables or passages of the source. Marks after values point to notes of the source that are not given here.

Legend:
[1] = cited from earlier work; for bioavailability / fCmax: po
[2] = cited from earlier work
[3] = tested on: 13 Enterobacteriaceae isolates; assay type: cell-based; conditions: with clavulanate 2:1
[4] = tested on: ESBL-producing Enterobacteriaceae isolates (panel of nineteen); assay: MIC of cephalosporins alone or with clavulanate/tazobactam, whole panel; assay type: cell-based; conditions: cephalosporin alone; 19 isolates
[5] = tested on: Enterobacter cloacae isolates; assay: MIC of cephalosporins alone or with clavulanate/tazobactam; assay type: cell-based; conditions: clavulanate 2:1, tazobactam 4 μg/mL
[6] = tested on: 385 Escherichia coli and 126 Klebsiella pneumoniae isolates; assay: MIC, MIC50 and MIC90 by reference broth microdilution against 511 UTI/bloodstream isolates (USA and Europe 2014-2015); assay type: cell-based; conditions: 511 isolates
[7] = tested on: Citrobacter freundii isolates; assay: MIC of cephalosporins alone or with clavulanate/tazobactam; assay type: cell-based; conditions: clavulanate 2:1, tazobactam 4 μg/mL
[8] = tested on: Klebsiella pneumoniae isolates; assay: as above; assay type: cell-based; conditions: clavulanate 2:1, tazobactam 4 μg/mL
[9] = tested on: Escherichia coli isolates; assay: as above; assay type: cell-based; conditions: clavulanate 2:1, tazobactam 4 μg/mL
[10] = tested on: Enterobacter aerogenes isolates; assay: as above; assay type: cell-based; conditions: Klebsiella aerogenes, clavulanate 2:1, tazobactam 4 μg/mL
[11] = tested on: Klebsiella oxytoca isolates; assay: as above; assay type: cell-based; conditions: clavulanate 2:1, tazobactam 4 μg/mL
AECO001 = assay: MIC of cephalosporins (Table 16); assay type: cell-based
CTX-M-15 Strain = assay: MIC of cephalosporins without and with CLV (Table 16); assay type: cell-based; conditions: for MIC: read-out: MIC CTX-M-15 Strain − CLV; for MIC CTX-M-15 Strain + CLV: with CLV
CTX-M-15 = CTX-M-15 (Escherichia coli, UniProt Q9EXV5); assay: Competition assay with nitrocefin (IC50); assay type: biochemical
Sequence of CTX-M-15 (Q9EXV5 entry or part of it): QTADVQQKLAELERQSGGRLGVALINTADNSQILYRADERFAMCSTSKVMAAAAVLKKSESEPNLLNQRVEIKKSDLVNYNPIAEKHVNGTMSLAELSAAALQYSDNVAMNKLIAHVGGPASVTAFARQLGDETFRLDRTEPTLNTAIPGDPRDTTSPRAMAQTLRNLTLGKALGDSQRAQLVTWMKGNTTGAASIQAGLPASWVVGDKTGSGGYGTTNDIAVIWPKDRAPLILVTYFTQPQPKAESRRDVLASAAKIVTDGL

[12] = tested on: C=CC1=C(C(=O)O)N2C(=O)[C@@H](NC(=O)/C(=N\OCC(=O)O)c3csc(N)n3)[C@H]2SC1; assay: purified protein, by the assay type; conditions: other: CTX-M-15-mediated hydrolysis; pH 7.0
[13] = tested on: COCC1=C(C(=O)O)N2C(=O)[C@@H](NC(=O)/C(=N\OC)c3csc(N)n3)[C@H]2SC1; assay: purified protein, by the assay type; conditions: other: CTX-M-15-mediated hydrolysis; pH 7.0

Compound | Mean Cmax ([1]; in vivo, 200 mg) | Mean fCmax ([1]; in vivo, 200 mg) | bioavailability ([1]; in vivo) | MIC ([5]; AECL1065 (CTX-M-15)) | MIC ([5]; AECL1067 (CTX-M-3)) | MIC ([7]; ACFR1034 (CTX-M-15, TEM-OSBL)) | MIC ([7]; ACFR1035 (CTX-M-3, TEM-OSBL)) | MIC ([8]; AKPN1159 (SHV-12)) | MIC ([8]; AKPN1161 (SHV-7)) | MIC ([8]; AKPN1162 (CTX-M-15, SHV-12)) | MIC ([8]; AKPN1166 (CTX-M-14, SHV-12)) | MIC ([8]; AKPN1167 (SHV-2)) | MIC ([9]; AECO001 (no ESBL)) | MIC ([9]; AECO1078 (CTX-M-15)) | MIC ([9]; AECO1157 (CTX-M-15, TEM-OSBL)) | MIC ([9]; AECO1159 (CTX-M-15)) | MIC ([9]; AECO1169 (CTX-M-1, TEM-OSBL)) | MIC ([9]; AECO1172 (CTX-M-14)) | MIC ([10]; AEAE1027 (CTX-M-14)) | MIC ([10]; AEAE1029 (CTX-M-15)) | further results
CO/N=C(\C(=O)N[C@@H]1C(=O)N2C(C(=O)O)=C(/C=C\c3scnc3C)CS[C@H]12)c1csc(N)n1 [Cefditoren, cefditoren] | 1800 ng/mL | 0.22 µg/mL | 14% |  |  |  |  |  |  |  |  |  |  |  |  |  |  |  |  |  | Mean unbound plasma concentration following one elimination half-life ([1]; in vivo): 0.11 µg/mL; peak free drug concentrations ([1]; in vivo): ≤ 0.3 µg/mL; Protein binding (% bound) ([2]; plasma): 88 (plasma) % bound; MICs range against ESBL+ isolates (Table 3) [3]: 0.12 to 2 µg/mL
CO/N=C(\C(=O)N[C@@H]1C(=O)N2C(C(=O)[O-])=C(C[N+]3(C)CCCC3)CS[C@H]12)c1csc(N)n1 [Cefepime, cefepime] |  |  |  | > 32 µg/mL | > 32 µg/mL | > 32 µg/mL | > 32 µg/mL | 2 µg/mL | 1 µg/mL | > 32 µg/mL | 4 µg/mL | 8 µg/mL | ≤ 0.031 µg/mL | > 32 µg/mL | 32 µg/mL | > 32 µg/mL | > 32 µg/mL | > 32 µg/mL | 8 µg/mL | > 32 µg/mL | ESBL-producing isolates with MIC<8 μg/mL [4]: 4 of 19; MIC50 [6]: > 16 µg/mL; EUCAST % I ([6]; EUCAST 2016 criteria): 10.0%; MIC90 ([6]; read-out: MIC90): > 16 µg/mL; MIC ([9]; AECO1147 (CTX-M-15)): 4 µg/mL; MIC ([11]; AKOX1005 (SHV-2, TEM-1, DHA-1)): 0.25 µg/mL; MIC ([11]; AKOX1009 (CTX-M-15)): 32 µg/mL
C=CC1=C(C(=O)O)N2C(=O)[C@@H](NC(=O)/C(=N\OCC(=O)O)c3csc(N)n3)[C@H]2SC1 [Cefixime, cefixime] | 2000 ng/mL | 0.7 µg/mL | 40-90% | > 64 µg/mL | > 64 µg/mL | > 64 µg/mL | > 64 µg/mL | 32 µg/mL | 32 µg/mL | > 64 µg/mL | > 64 µg/mL | 8 µg/mL | 1 µg/mL | > 64 µg/mL | > 64 µg/mL | > 64 µg/mL | 16 µg/mL | 16 µg/mL | 8 µg/mL | > 64 µg/mL | MIC (AECO001): 1 µg/mL; MIC (CTX-M-15 Strain): > 64 µg/mL; MIC CTX-M-15 Strain + CLV (CTX-M-15 Strain): 2 µg/mL; Mean unbound plasma concentration following one elimination half-life ([1]; for highest plasma concentration from previous row): 0.65 (400 mg) μg/mL; Mean Cmax ([1]; in vivo, 400 mg): 3700 ng/mL; Mean fCmax ([1]; in vivo, 400 mg): 1.3 µg/mL; fCmax ([1]; in vivo): 2.7 µg/mL; Elimination half-life ([1]; plasma): 3-4^b h; IC50 (CTX-M-15): 20 µM; Protein binding (% bound) ([2]; serum): 65 (serum) % bound; MIC ([11]; AKOX1005 (SHV-2, TEM-1, DHA-1)): 16 µg/mL; MIC ([11]; AKOX1009 (CTX-M-15)): > 64 µg/mL
CO/N=C(\C(=O)N[C@@H]1C(=O)N2C(C(=O)O)=C(COC(C)=O)CS[C@H]12)c1csc(N)n1 [Cefotaxime, cefotaxime] |  |  |  |  |  |  |  |  |  |  |  |  |  |  |  |  |  |  |  |  | MIC (AECO001): 0.125 µg/mL; IC50 (CTX-M-15): 31 µM
COCC1=C(C(=O)O)N2C(=O)[C@@H](NC(=O)/C(=N\OC)c3csc(N)n3)[C@H]2SC1 [Cefpodoxime, cefpodoxime] | 2300 ng/mL | 1.8 µg/mL | 40-90% | > 64 µg/mL | > 64 µg/mL | > 64 µg/mL | > 64 µg/mL | 64 µg/mL | 16 µg/mL | > 64 µg/mL | > 64 µg/mL | > 64 µg/mL | 0.5 µg/mL | > 64 µg/mL | > 64 µg/mL | > 64 µg/mL | > 64 µg/mL | > 64 µg/mL | > 64 µg/mL | > 64 µg/mL | MIC (AECO001): 0.5 µg/mL; MIC (CTX-M-15 Strain): > 64 µg/mL; MIC CTX-M-15 Strain + CLV (CTX-M-15 Strain): 4 µg/mL; Mean Cmax ([1]; in vivo, 100 mg): 1400 ng/mL; Mean fCmax ([1]; in vivo, 100 mg): 1.1 µg/mL; Mean Cmax ([1]; in vivo, 400 mg): 3900 ng/mL; half-life ([1]; in vivo, 800 mg): 2.9 h; fCmax ([1]; in vivo, 800 mg): approximately 5.4 μg/mL; Elimination half-life ([1]; in vivo): 2.1 to 2.8 h; Mean unbound plasma concentration following one elimination half-life ([1]; in vivo): 1.55 (400 mg) μg/mL; IC50 (CTX-M-15): 24 µM; Protein binding (% bound) ([2]; plasma): 21-29 (plasma) % bound; Protein binding (% bound) ([2]; serum): 22-33 (serum); % bound; MIC ([9]; AECO1147 (CTX-M-15)): > 64 µg/mL; MIC ([11]; AKOX1005 (SHV-2, TEM-1, DHA-1)): 32 µg/mL; MIC ([11]; AKOX1009 (CTX-M-15)): > 64 µg/mL
CTX-M-15 (Escherichia coli) |  |  |  |  |  |  |  |  |  |  |  |  |  |  |  |  |  |  |  |  | Km [12]: 14 (11-18) μM; kcat [12]: 2 s⁻¹; kcat/Km [12]: 140000 M⁻¹ s⁻¹; Km [13]: 13 (10-16) μM; kcat [13]: 50 s⁻¹; kcat/Km [13]: 3.8e+06 M⁻¹ s⁻¹
